Assay results: patent US12312621B2, “Reprogramming urokinase into an antibody-recruiting anticancer agent” (YALE UNIVERSITY, priority 2011, dated 2025)

Test: Storage stability of stock solution in water
Assay type: physicochemical
Method: Synthesis of guanidinium 1 Into a flask were added crude peptide 1v (0.120 mmol, 1 equiv), and a mixture of TFA, TiPS, and water (38:1:1, 2 mL, 0.06 M, producing a homogeneous solution). The mixture was stirred in the dark (1.5 h) and diluted with toluene (3 mL). Volatiles were removed under reduced pressure (2×toluene azeotrope). The crude mixture was dissolved in water (2 mL) and washed with EtOAc (2×2 mL). The aqueous phase was purified by semi-preparative RP-HPLC (C18 column, water+0.1% TFA with 15-35% MeCN over 30 min, product isomers elute at 14.5 and 15.4 min) to yield pure guanidinium 1 (58 mg, 0.049 mmol, 41% yield) as a mixture (approximately 1:1) of regioisomers at fluorescein and as a yellow solid. The regioisomeric ratio was measured by ^1H NMR. ^1H NMR signals were assigned by ^1H-^1H COSY.
Synthesis of guanidinium 2 Into a flask were added crude peptide 2g (0.150 mmol, 1 equiv), and a mixture of TFA, TiPS, and water (38:1:1, 2 mL, 0.07 M). The mixture was stirred (1.5 h) and diluted with toluene (3 mL). Volatiles were removed under reduced pressure (2×toluene azeotrope). The crude mixture was dissolved in water (2 mL) and washed with EtOAc (2×2 mL). […]

N=C(N)NCCC[C@H](NC(=O)CNC(=O)[C@@H](N)CCC(=O)NCCCOCCOCCOCCCNc1ccc([N+](=O)[O-])cc1[N+](=O)[O-])C(=O)CCl [compound 2]
stability of stock solution: stable for at least several months
